Reference: the supplement of paper PMC11208160

Assay: recombinant barcode read abundance after kanamycin selection (control-corrected) (log10(CPM+1)); higher = more efficient recombination; sequences stand for … in AGTGCAGAGAAAATCGGCCAGTTTTCTCTGCCTGCAGTCCGCATGCCGT…AGATTTATGCAGCGGACTGCCTTTCTCCCAAAGTGATAAACCGGACAGTATCATGGACCGGTTTTCCCGGTAATCCGTATTTGCAAGGTTGGTTTCACT; site = the 11-nt target
Protocol: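 Pooled E. coli target-specificity screen for the IS621 bridge recombinase. Each library plasmid pairs an 11-nt target (CT core) with a bridge RNA whose target-binding loop (9-nt LTG + 4-nt RTG) is reprogrammed; the rest of the 177-nt WT IS621 bridge RNA scaffold is fixed. The plasmid is co-electroporated with a WT donor plasmid; recombinase is induced with 0.1 mM IPTG and recombinants are selected on kanamycin. Recombinant barcodes are sequenced, converted to CPM, averaged over two biological replicates and corrected by the unselected control CPM. Molecule = full bridge RNA written as DNA: LTG = specificity nt 1-9, RTG = reverse complement of specificity nt 8-11, in the WT scaffold.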
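Note: IS621 recombinase and bridge RNA in Escherichia coli cells.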

Q: For “ACTTGAGCTTGGGTTCTAACCTGTTGCAT (site ACTTGAGCTAT)”, which “recombinant barcode read abundance (log10)” value is on record?
A: 1.36

Q: Which “recombinant barcode read abundance (log10)” value does the source give for “ACTTGAGCTTGGGTTCTAACCTGTTGCAT (site TAGACTCCTTG)” here?
A: 0.232

Q: For “ACTTTAACTTGGGTTCTAACCTGTTGCTT (site ACTATAACTAA)”, which “recombinant barcode read abundance (log10)” value is on record?
A: 0.185

Q: Which “recombinant barcode read abundance (log10)” value does the source give for “ACTTTAACTTGGGTTCTAACCTGTTGCTT (site ACTCTAACTAA)” here?
A: 0.229

Q: Which “recombinant barcode read abundance (log10)” value does the source give for “ACTTTAACTTGGGTTCTAACCTGTTGCTT (site ACTGTAACTAA)” here?
A: 0.0934

Q: Which “recombinant barcode read abundance (log10)” value does the source give for “ACTTTAACTTGGGTTCTAACCTGTTGCTT (site ACTTTAACTAA)” here?
A: 0.217

Q: For “ACTTTAGCTTGGGTTCTAACCTGTTGCAG (site ACATTAGCTTT)”, which “recombinant barcode read abundance (log10)” value is on record?
A: 0.056

Q: With “ACTTTAGCTTGGGTTCTAACCTGTTGCAG (site ACTTTAGCTCT)” as the sequence, how does the “recombinant barcode read abundance (log10)” value read?
A: 0.694

Q: For “ACTTTGCCTTGGGTTCTAACCTGTTGCCT (site ACATTGCCTAG)”, which “recombinant barcode read abundance (log10)” value is on record?
A: 0.0554

Q: Which “recombinant barcode read abundance (log10)” value does the source give for “ACTTTGCCTTGGGTTCTAACCTGTTGCCT (site ACCTTGCCTAG)” here?
A: 0.0879

Q: With “ACTTTGCCTTGGGTTCTAACCTGTTGCCT (site ACGTTGCCTAG)” as the sequence, how does the “recombinant barcode read abundance (log10)” value read?
A: 0.0319

Q: Which “recombinant barcode read abundance (log10)” value does the source give for “ACTTTGCCTTGGGTTCTAACCTGTTGCCT (site ACTTTGCCTAG)” here?
A: 0.953

Q: With “AGAAAGTCTTGGGTTCTAACCTGTTGCGT (site AGAAAGTCTAC)” as the sequence, how does the “recombinant barcode read abundance (log10)” value read?
A: 2.36

Q: For “AGAAAGTCTTGGGTTCTAACCTGTTGCGT (site AGAGAGTCTAG)”, which “recombinant barcode read abundance (log10)” value is on record?
A: 0.363

Q: With “AGAAATACTTGGGTTCTAACCTGTTGCCG (site AGAAATACTCG)” as the sequence, how does the “recombinant barcode read abundance (log10)” value read?
A: 1.07

Q: Which “recombinant barcode read abundance (log10)” value does the source give for “AGAAATACTTGGGTTCTAACCTGTTGCCG (site GTCCTACCTTA)” here?
A: 0.0574

Q: For “AGAACAACTTGGGTTCTAACCTGTTGCCT (site AGAACAACTAG)”, which “recombinant barcode read abundance (log10)” value is on record?
A: 0.388

Q: Which “recombinant barcode read abundance (log10)” value does the source give for “AGAACAACTTGGGTTCTAACCTGTTGCCT (site AGCACAACTAG)” here?
A: 0.035

Q: For “AGAACAACTTGGGTTCTAACCTGTTGCCT (site AGGACAACTAG)”, which “recombinant barcode read abundance (log10)” value is on record?
A: 0.456

Q: For “AGAACAACTTGGGTTCTAACCTGTTGCCT (site AGTACAACTAG)”, which “recombinant barcode read abundance (log10)” value is on record?
A: 0.102

Q: Which “recombinant barcode read abundance (log10)” value does the source give for “AGAACTACTTGGGTTCTAACCTGTTGCCA (site AGAACTACTTG)” here?
A: 0.0417

Q: For “AGAACTACTTGGGTTCTAACCTGTTGCCA (site CTCGTGTCTAT)”, which “recombinant barcode read abundance (log10)” value is on record?
A: 0.0514

Q: For “AGAAGTACTTGGGTTCTAACCTGTTGCGG (site AGAAGTACTCC)”, which “recombinant barcode read abundance (log10)” value is on record?
A: 1.86

Q: With “AGAAGTACTTGGGTTCTAACCTGTTGCGG (site GTAAGTACTCC)” as the sequence, how does the “recombinant barcode read abundance (log10)” value read?
A: 0.0235

Q: Which “recombinant barcode read abundance (log10)” value does the source give for “AGAATATCTTGGGTTCTAACCTGTTGCCT (site AGAATATCTAG)” here?
A: 0.834

Q: With “AGAATATCTTGGGTTCTAACCTGTTGCCT (site AGATTATCTAG)” as the sequence, how does the “recombinant barcode read abundance (log10)” value read?
A: 0.193

Q: For “AGACATCCTTGGGTTCTAACCTGTTGCTT (site AGACATCCTAA)”, which “recombinant barcode read abundance (log10)” value is on record?
A: 0.948

Q: With “AGACATCCTTGGGTTCTAACCTGTTGCTT (site AGACCTCCTAA)” as the sequence, how does the “recombinant barcode read abundance (log10)” value read?
A: 0.0971

Q: For “AGACATCCTTGGGTTCTAACCTGTTGCTT (site AGACGTCCTAA)”, which “recombinant barcode read abundance (log10)” value is on record?
A: 0.0527

Q: Which “recombinant barcode read abundance (log10)” value does the source give for “AGACATCCTTGGGTTCTAACCTGTTGCTT (site AGACTTCCTAA)” here?
A: 0.195

Q: Which “recombinant barcode read abundance (log10)” value does the source give for “AGACCACCTTGGGTTCTAACCTGTTGCCT (site AAACCACCTAG)” here?
A: 0.383

Q: For “AGACCACCTTGGGTTCTAACCTGTTGCCT (site ACACCACCTAG)”, which “recombinant barcode read abundance (log10)” value is on record?
A: 0.234

Q: For “AGACCACCTTGGGTTCTAACCTGTTGCCT (site AGACCACCTAG)”, which “recombinant barcode read abundance (log10)” value is on record?
A: 1.82

Q: For “AGACCACCTTGGGTTCTAACCTGTTGCCT (site ATACCACCTAG)”, which “recombinant barcode read abundance (log10)” value is on record?
A: 0.847

Q: With “AGACGGACTTGGGTTCTAACCTGTTGCCA (site AGACGGACTTG)” as the sequence, how does the “recombinant barcode read abundance (log10)” value read?
A: 1.68

Q: For “AGACGGACTTGGGTTCTAACCTGTTGCCA (site CTTGCTCCTAT)”, which “recombinant barcode read abundance (log10)” value is on record?
A: 0.145

Q: Which “recombinant barcode read abundance (log10)” value does the source give for “AGACTAGCTTGGGTTCTAACCTGTTGCGT (site AGACTAGCTAC)” here?
A: 2.51

Q: With “AGACTAGCTTGGGTTCTAACCTGTTGCGT (site TTACTAGCTAC)” as the sequence, how does the “recombinant barcode read abundance (log10)” value read?
A: 0.255

Q: With “AGACTCCCTTGGGTTCTAACCTGTTGCCT (site AGACTCCCTAG)” as the sequence, how does the “recombinant barcode read abundance (log10)” value read?
A: 1.22

Q: With “AGACTCCCTTGGGTTCTAACCTGTTGCCT (site AGCCTCCCTAG)” as the sequence, how does the “recombinant barcode read abundance (log10)” value read?
A: 0.223

Q: For “AGACTCCCTTGGGTTCTAACCTGTTGCCT (site AGGCTCCCTAG)”, which “recombinant barcode read abundance (log10)” value is on record?
A: 0.0602
